Converted amounts (≈) assume the structure as drawn.
Legend:
Experiment in all cases: In vitro antifungal activity, microbroth dilution MIC
Type in all cases: cell-based
[1] = test system: Aspergillus furnigatus B. 19119; details: for Minimal inhibitory concentration (MIC): A furnigatus B. 19119, RPMI-1640, 35° C., 4 to 48 hours
Summary of the method: (§1)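 Broth microdilution adapted from NCCLS M27, in RPMI-1640 with 0.165 M MOPS, pH 7.0. Yeast or mould inoculum at 2×10^3 CFU/ml was mixed 1:1 with DMSO-derived compound solutions (200 to 0.10 μg/ml before mixing) and incubated at 35 °C for 4 to 48 h. MIC was the concentration showing no growth.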

[2] = test system: Aspergillus niger A. 16404; details: for Minimal inhibitory concentration (MIC): A. niger A. 16404, RPMI-1640, 35° C., 4 to 48 hours
Summary of the method: as §1

[3] = test system: Candida albicans A. 10231; details: 4 to 48 hours; for Minimal inhibitory concentration (MIC): C. albicans A. 10231, RPMI-1640, 35° C.
Summary of the method: as §1

[4] = test system: Candida albicans C1-2; details: 4 to 48 hours; for Minimal inhibitory concentration (MIC): C. albicans C1-2, RPMI-1640, 35° C.
Summary of the method: as §1

[5] = test system: Candida albicans IFO. 1385; details: 4 to 48 hours; for Minimal inhibitory concentration (MIC): C. albicans IFO. 1385, RPMI-1640, 35° C.
Summary of the method: as §1

[6] = test system: Candida krusei K. 11655; details: 4 to 48 hours; for Minimal inhibitory concentration (MIC): C. krusei K. 11655, RPMI-1640, 35° C.
Summary of the method: as §1

[7] = test system: Candida parapsitosis A. 7330; details: 4 to 48 hours; for Minimal inhibitory concentration (MIC): C. parapsitosis A. 7330, RPMI-1640, 35° C.
Summary of the method: as §1

[8] = test system: Candida pseudotropicalis K. 11658; details: 4 to 48 hours; for Minimal inhibitory concentration (MIC): C. pseudotropicalis K. 11658, RPMI-1640, 35° C.
Summary of the method: as §1

[9] = test system: Candida tropicalis A. 13803; details: 4 to 48 hours; for Minimal inhibitory concentration (MIC): C. tropicalis A. 13803, RPMI-1640, 35° C.
Summary of the method: as §1

[10] = test system: Cryptococcus neoformans A. 34144; details: for Minimal inhibitory concentration (MIC): Cry. neoformans A. 34144, RPMI-1640, 35° C., 4 to 48 hours
Summary of the method: as §1

[11] = test system: Cryptococcus neoformans B. 42419; details: 4 to 48 hours; for Minimal inhibitory concentration (MIC): Cry. neoformans B. 42419, RPMI-1640, 35° C.
Summary of the method: as §1

[12] = test system: Cryptococcus neoformans IFM. 40092; details: for Minimal inhibitory concentration (MIC): Cry. neoformans IFM. 40092, RPMI-1640, 35° C., 4 to 48 hours
Summary of the method: as §1

[13] = test system: Torulopsis glabrata B. 16205; details: 4 to 48 hours; for Minimal inhibitory concentration (MIC): T. glabrata B. 16205, RPMI-1640, 35° C.
Summary of the method: as §1

[14] = test system: Trichophyton mentagrophytes A. 9129; details: for Minimal inhibitory concentration (MIC): T. mentagrophytes A. 9129, RPMI-1640, 35° C., 4 to 48 hours
Summary of the method: as §1

[15] = test system: Trichophyton mentagrophytes B. 32663; details: for Minimal inhibitory concentration (MIC): T. mentagrophytes B. 32663, RPMI-1640, 35° C., 4 to 48 hours
Summary of the method: as §1

[16] = RPMI-1640, 35° C., no growth observed

Minimal inhibitory concentration (MIC) [1] [µg/mL] | Minimal inhibitory concentration (MIC) [2] [µg/mL] | Minimal inhibitory concentration (MIC) [3] [µg/mL] | Minimal inhibitory concentration (MIC) [4] [µg/mL] | Minimal inhibitory concentration (MIC) [5] [µg/mL] | Minimal inhibitory concentration (MIC) [6] [µg/mL] | Minimal inhibitory concentration (MIC) [7] [µg/mL] | Minimal inhibitory concentration (MIC) [8] [µg/mL] | Minimal inhibitory concentration (MIC) [9] [µg/mL] | Minimal inhibitory concentration (MIC) [10] [µg/mL] | Minimal inhibitory concentration (MIC) [11] [µg/mL] | Minimal inhibitory concentration (MIC) [12] [µg/mL] | Minimal inhibitory concentration (MIC) [13] [µg/mL] | Minimal inhibitory concentration (MIC) [14] | Minimal inhibitory concentration (MIC) [15] [µg/mL] | SMILES | also measured
 |  |  |  |  |  |  |  |  |  |  |  |  |  |  | FC(=C(c1cc(Cl)cc(Cl)c1)C(F)(F)F)N1CCN(c2ccc(OCC3COC(Cn4ccnc4)(c4ccc(F)cc4F)O3)cc2)CC1 (mixture of isomers) [Ex. 150] | Minimal inhibitory concentration(MIC), A furnigatus B. 19119 [1, 16]: 12.5 µg/mL; Minimal inhibitory concentration(MIC), A. niger A. 16404 [2, 16]: 100 µg/mL; Minimal inhibitory concentration(MIC), C. albicans A. 10231 [3, 16]: >100 µg/mL; Minimal inhibitory concentration(MIC), C. albicans C1-2 [4, 16]: >100 µg/mL; Minimal inhibitory concentration(MIC), C. albicans IFO. 1385 [5, 16]: 0.39 µg/mL; Minimal inhibitory concentration(MIC), C. krusei K. 11655 [6, 16]: 0.78 µg/mL; Minimal inhibitory concentration(MIC), C. parapsitosis A. 7330 [7, 16]: 1.56 µg/mL; Minimal inhibitory concentration(MIC), C. pseudotropicalis K. 11658 [8, 16]: 0.78 µg/mL; Minimal inhibitory concentration(MIC), C. tropicalis A. 13803 [9, 16]: >100 µg/mL; Minimal inhibitory concentration(MIC), Cry. neoformans A. 34144 [10, 16]: 1.56 µg/mL; Minimal inhibitory concentration(MIC), Cry. neoformans B. 42419 [11, 16]: 0.39 µg/mL; Minimal inhibitory concentration(MIC), Cry. neoformans IFM. 40092 [12, 16]: ≦0.10 μg/ml; Minimal inhibitory concentration(MIC), T. glabrata B. 16205 [13, 16]: 50.0 µg/mL; Minimal inhibitory concentration(MIC), T. mentagrophytes A. 9129 [14, 16]: 3.13 µg/mL; Minimal inhibitory concentration(MIC), T. mentagrophytes B. 32663 [15, 16]: ≦0.10 μg/ml
3.13 (≈ 6.76 µM) | 3.13 (≈ 6.76 µM) | 6.25 (≈ 13.5 µM) | 6.25 (≈ 13.5 µM) | 0.78 (≈ 1.68 µM) | 12.5 (≈ 27 µM) | 12.5 (≈ 27 µM) | 12.5 (≈ 27 µM) | 25.0 (≈ 54 µM) | 3.13 (≈ 6.76 µM) | 3.13 (≈ 6.76 µM) | 1.56 (≈ 3.37 µM) | 6.25 (≈ 13.5 µM) | 1.56 µg/mL (≈ 3.37 µM) | 1.56 (≈ 3.37 µM) | Cc1cccc(C=C(F)OCC2COC(Cn3ccnc3)(c3ccc(Cl)cc3Cl)O2)c1 (stereo not drawn) [Ex. 2] | 
3.13 (≈ 6.76 µM) | 3.13 (≈ 6.76 µM) | 12.5 (≈ 27 µM) | 25.0 (≈ 54 µM) | 0.78 (≈ 1.68 µM) | 6.25 (≈ 13.5 µM) | 6.25 (≈ 13.5 µM) | 6.25 (≈ 13.5 µM) | 25.0 (≈ 54 µM) | 0.39 (≈ 0.842 µM) | 3.13 (≈ 6.76 µM) | 1.56 (≈ 3.37 µM) | 3.13 (≈ 6.76 µM) | 1.56 µg/mL (≈ 3.37 µM) | 1.56 (≈ 3.37 µM) | Cc1ccc(C=C(F)OCC2COC(Cn3ccnc3)(c3ccc(Cl)cc3Cl)O2)cc1 (stereo not drawn) [Ex. 3] | 
6.25 (≈ 13.1 µM) | 6.25 (≈ 13.1 µM) | 12.5 (≈ 26.2 µM) | 6.25 (≈ 13.1 µM) | 1.56 (≈ 3.27 µM) | 6.25 (≈ 13.1 µM) | 12.5 (≈ 26.2 µM) | 6.25 (≈ 13.1 µM) | 12.5 (≈ 26.2 µM) | 3.13 (≈ 6.56 µM) | 3.13 (≈ 6.56 µM) | 1.56 (≈ 3.27 µM) | 6.25 (≈ 13.1 µM) | 3.13 µg/mL (≈ 6.56 µM) | 1.56 (≈ 3.27 µM) | CCc1ccc(C=C(F)OCC2COC(Cn3ccnc3)(c3ccc(Cl)cc3Cl)O2)cc1 (stereo not drawn) [Ex. 4] | 
6.25 (≈ 13.1 µM) | 6.25 (≈ 13.1 µM) | 12.5 (≈ 26.2 µM) | 12.5 (≈ 26.2 µM) | 0.78 (≈ 1.63 µM) | 12.5 (≈ 26.2 µM) | 12.5 (≈ 26.2 µM) | 12.5 (≈ 26.2 µM) | 12.5 (≈ 26.2 µM) | 3.13 (≈ 6.56 µM) | 3.13 (≈ 6.56 µM) | 1.56 (≈ 3.27 µM) | 6.25 (≈ 13.1 µM) | 3.13 µg/mL (≈ 6.56 µM) | 3.13 (≈ 6.56 µM) | Cc1ccc(C=C(F)OCC2COC(Cn3ccnc3)(c3ccc(Cl)cc3Cl)O2)cc1C (stereo not drawn) [Ex. 5] | 
6.25 (≈ 13.1 µM) | 6.25 (≈ 13.1 µM) | 6.25 (≈ 13.1 µM) | 12.5 (≈ 26.2 µM) | 0.78 (≈ 1.63 µM) | 12.5 (≈ 26.2 µM) | 12.5 (≈ 26.2 µM) | 12.5 (≈ 26.2 µM) | 12.5 (≈ 26.2 µM) | 3.13 (≈ 6.56 µM) | 3.13 (≈ 6.56 µM) | 1.56 (≈ 3.27 µM) | 6.25 (≈ 13.1 µM) | 3.13 µg/mL (≈ 6.56 µM) | 3.13 (≈ 6.56 µM) | Cc1cc(C)cc(C=C(F)OCC2COC(Cn3ccnc3)(c3ccc(Cl)cc3Cl)O2)c1 (stereo not drawn) [Ex. 6] | 
6.25 (≈ 12.7 µM) | 12.5 (≈ 25.4 µM) | 12.5 (≈ 25.4 µM) | 12.5 (≈ 25.4 µM) | 1.56 (≈ 3.17 µM) | 12.5 (≈ 25.4 µM) | 12.5 (≈ 25.4 µM) | 12.5 (≈ 25.4 µM) | 25.0 (≈ 50.9 µM) | 1.56 (≈ 3.17 µM) | 1.56 (≈ 3.17 µM) | 0.78 (≈ 1.59 µM) | 6.25 (≈ 12.7 µM) | 6.25 µg/mL (≈ 12.7 µM) | 1.56 (≈ 3.17 µM) | Cc1cc(C)c(C=C(F)OCC2COC(Cn3ccnc3)(c3ccc(Cl)cc3Cl)O2)cc1C (stereo not drawn) [Ex. 7] | 
6.25 (≈ 13 µM) | 6.25 (≈ 13 µM) | 12.5 (≈ 26.1 µM) | 25.0 (≈ 52.2 µM) | 1.56 (≈ 3.25 µM) | 6.25 (≈ 13 µM) | 12.5 (≈ 26.1 µM) | 12.5 (≈ 26.1 µM) | 25.0 (≈ 52.2 µM) | 3.13 (≈ 6.53 µM) | 1.56 (≈ 3.25 µM) | 0.78 (≈ 1.63 µM) | 6.25 (≈ 13 µM) | 3.13 µg/mL (≈ 6.53 µM) | 1.56 (≈ 3.25 µM) | COc1cccc(C=C(F)OCC2COC(Cn3ccnc3)(c3ccc(Cl)cc3Cl)O2)c1 (stereo not drawn) [Ex. 8] | 

SMILES | Minimal inhibitory concentration (MIC) [1] [µg/mL] | Minimal inhibitory concentration (MIC) [2] [µg/mL] | Minimal inhibitory concentration (MIC) [3] [µg/mL] | Minimal inhibitory concentration (MIC) [4] [µg/mL] | Minimal inhibitory concentration (MIC) [5] [µg/mL] | Minimal inhibitory concentration (MIC) [6] [µg/mL] | Minimal inhibitory concentration (MIC) [7] [µg/mL] | Minimal inhibitory concentration (MIC) [8] [µg/mL] | Minimal inhibitory concentration (MIC) [9] [µg/mL] | Minimal inhibitory concentration (MIC) [10] [µg/mL] | Minimal inhibitory concentration (MIC) [11] [µg/mL] | Minimal inhibitory concentration (MIC) [12] [µg/mL] | Minimal inhibitory concentration (MIC) [13] [µg/mL] | Minimal inhibitory concentration (MIC) [14] | Minimal inhibitory concentration (MIC) [15] [µg/mL] | also measured
FC(=Cc1ccccc1)OC[C@H]1CO[C@](Cn2ccnc2)(c2ccc(Cl)cc2Cl)O1 (relative stereo) [Example 1, (E&Z) 1-[cis-2-(2,4-dichlorophenyl)-2-(1H-1-imidazolylmethyl)-1,3-dioxolan-4-ylmethoxy]-1-fluoro-2-phenyl-1-ethene] | 1.56 (≈ 3.47 µM) | 1.56 (≈ 3.47 µM) | 25.0 (≈ 55.6 µM) | 25.0 (≈ 55.6 µM) | 3.13 (≈ 6.97 µM) | 6.25 (≈ 13.9 µM) | 6.25 (≈ 13.9 µM) | 6.25 (≈ 13.9 µM) | 50.0 (≈ 111 µM) | 0.39 (≈ 0.868 µM) | 0.39 (≈ 0.868 µM) | 0.20 (≈ 0.445 µM) | 25.0 (≈ 55.6 µM) | ≦0.10 μg/ml | 0.20 (≈ 0.445 µM) | 

Source: patent US6376497B1, “Antifungal azole derivatives having a fluorinated vinyl group and process for preparing same” (Korea Research Institute of Chemical Technology, priority 1999, dated 2002)
